Assay results taken from US20160113900A1, “INHIBITORS OF MITOCHONDRIAL STAT3 AND USES THEREOF IN MODULATION OF MAST CELL EXOCYTOSIS” (Yissum Research Development Company of the Hebrew …, priority 2014, published 2016).
Each block holds one molecule with its values, some of them ahead of it.

What was measured:
RBL cells [1] = experiment: β-Hexosaminidase release assay (degranulation) in RBL cells; format: cell-based, rat
Description: (§1) RBL-2H3 cells were maintained in RPMI 1640 medium as previously described1. Bone marrow was isolated from 5-6 week-old mice, and BMMC were cultured in RPMI medium supplemented with 20 ng/ml interleukin-3 (IL-3) and 20 ng/ml SCF as previously described2, 3. Cells were generally grown for a minimum of 4 weeks and used when >90% of the population expressed FcεRI. BMMC and RBL cells were sensitized first with anti-DNP IgE monoclonal antibody (SPE-7; Sigma-Aldrich Corp.) and then challenged with DNP-BSA (Sigma-Aldrich Corp.). IgE antibody was centrifuged (18,000 g, 5 min) before use to remove aggregates. […] For glycolysis elimination cells were maintained in glucose-free RPMI supplemented with 10% dialyzed fetal calf serum and 5 mM galactose.
(§2) 1×104 RBL or 3×104 BMMC were immunologically activated as described above. After IgE incubation, the cells were washed three times with 5 mL of degranulation buffer (NaCl 130 mM, KCl 5 mM, Glucose 5.6 mM, MgCl2 1 mM, CaCl2 1.2 mM, Hepes pH 7.4 10 mM, BSA 0.1%) and resuspended in 200 μL of the same buffer with DNP-albumin for 30 min. The release of β-hexosaminidase was determined in triplicates in a 96-well plate. Aliquots (20 μL) of supernatants and cell lysates were incubated for 30 minutes with 100 μL of substrate solution (1.3 mg/mL p-nitrophenyl-b-D-2-acetamido-2-deoxyglucopyranozide in 0.1 M citrate [pH 4.51]). The reaction was stopped by the addition of 200 μL of 0.2 M glycine (pH 10.7). The plate OD was read in an enzyme-linked immunosorbent assay (ELISA) reader at a wavelength of 405 nm Percent release values for each experimental condition were calculated3.

RBL cells [2] = experiment: ATP determination (ATPLite luminescence) in RBL cells; format: cell-based, rat; settings: for ATP levels: RBL cells
Description: as §1
ATP levels were measured using the ATPLite luminescence-based assay according to the manufacturer's instructions (Perkin Elmer, Waltham, Mass., USA).

RBL cells [3] = experiment: Oxygen consumption (Seahorse XF analyzer) in RBL cells; format: cell-based, rat; settings: for decrease in oxygen consumption: 40 μM U0126; for oxygen consumption: RBL cells, 3 h
Description: as §1
Oxygen consumption rate (OCR) was measured using an XF24 extracellular flux analyzer (Seahorse Biosciences, North Billeric, Mass., USA).

[4] = tested on: STAT3 serine 727 phosphorylation; experiment: Western blot of STAT3 serine 727 phosphorylation in activated RBL cells; format: cell-based, rat
Description: RBL cells were washed once in cold PBS prior to homogenization. 9×10^6 cells were homogenized in buffer A (320 mm sucrose, 5 mm Tris, 2 mm EGTA, pH 7.4) with 10 strokes of a Teflon Dounce homogenizer. The procedure was performed at 4° C. The homogenate was centrifuged for 3 min at 2000 g and the supernatant kept. This was repeated twice, and the supernatants combined then centrifuged for 3 min at 2000 g. to remove the nuclei and cell debris. The supernatant was transferred to a clean tube and centrifuged for 10 min at 12,000 g to pellet mitochondria, washed twice resuspended in a small volume of buffer A and stored at −70° C. In order to prepare mitoplasts, the mitochondrial pellet was resuspended in buffer A with the addition of 0.02% (w/v) digitonin. The pellet was resuspended and washed twice in large volumes of digitonin-free buffer A. […] Cells and mitochondria were vortexed and incubated on ice for 15 min. The lysates were then centrifuged at 14,000 g for 15 min and pellets were discarded. The protein concentration of each sample was determined using Bradford Reagent (Sigma-Aldrich). Proteins were resolved by 10-15% SDS-PAGE under reducing conditions and transferred to polyvinylidene difluoride membranes (Millipore Billerica, Ma). […] The membranes were washed three times with TBST for 5 mM before and after each incubation with secondary Ab. The proteins were detected with the appropriate secondary Ab (1 h; room temperature) coupled to HRP-conjugated goat anti-rabbit or anti-mouse Ab and visualized by chemiluminescence according to the manufacturer's instructions (Pierce).

caspase3 [5] = experiment: Western blot of caspase3 / cleaved caspase3 (apoptosis) in RBL cells; format: cell-based, rat
Description: (§3) RBL cells and mitochondrial pellets were lysed by the addition of lysis buffer (50 mM Tris-HCl pH 7.4, 1% Nonidet P-40, 0.25% Na-deoxycholate, 150 mM NaCl, 1 mM EDTA, 1 mM PMSF) supplemented with 15 μl protease inhibitor (Sigma-Aldrich). Cells and mitochondria were vortexed and incubated on ice for 15 min. The lysates were then centrifuged at 14,000 g for 15 min and pellets were discarded. The protein concentration of each sample was determined using Bradford Reagent (Sigma-Aldrich). Proteins were resolved by 10-15% SDS-PAGE under reducing conditions and transferred to polyvinylidene difluoride membranes (Millipore Billerica, Ma). The membranes were incubated in 5% fat-free milk and TBST (10 mM Tris-HCl, pH 7.4, 150 mM NaCl, 0.1% Tween 20) for 1 h and then in 5% BSA and TBST containing various dilutions of primary Abs for 18 h at 4° C. The membranes were washed three times with TBST for 5 mM before and after each incubation with secondary Ab. The proteins were detected with the appropriate secondary Ab (1 h; room temperature) coupled to HRP-conjugated goat anti-rabbit or anti-mouse Ab and visualized by chemiluminescence according to the manufacturer's instructions (Pierce).

RBL cells [6] = experiment: TNF-α secretion of activated RBL cells; format: cell-based, rat; settings: activated RBL cells (FIG. 19G)
caspase3 [7] = experiment: Western blot of cleaved caspase3 in BMMC; format: cell-based, mouse; settings: 6 μM (FIG. 21D)
plasma histamine = experiment: In vivo histamine release assay, passive systemic IgE-mediated anaphylaxis model; settings: Mitocur-1 80 mg/kg i.p., 3.5 h before DNP-BSA challenge
Description: C3H 6-7 week male and female WT mice were purchased from Jackson Lab (Cambridge, Mass., USA), mice were fed a regular diet and with drinking water ad libitum. Experiments were approved by The Hebrew University Ethical Committee for Animal Experimentation.
WT C3H mice were sensitized with 3 μg murine IgE anti-DNP mAb SPE-7 by means of intravenous injection in the tail vein. Twenty-four hours later, mice were treated with 40 mg/kg of static dissolved in corn oil or corn oil alone for 2.5 hours, then mice were challenged with i.v. injection of DNP-BSA (250 μg per mouse). 100 μl of blood was collected immediately and added to an equal volume of pre-cold Alsever's Solution. Blood was centrifuged 2000 g for […] and plasma supernatant was collected. Plasma histamine levels were determined by using competitive ELISA (IBL International Gmbh, Hamburg, Germany).
STAT3's role in vivo was investigated by evaluating the response to allergic stimulation in Stattic-treated mice. The passive systemic IgE-mediated anaphylaxis model was used. Mice were injected (i.v.) with IgE anti-DNP. Twenty four hours later they were injected (i.p.) with Stattic (80 mg/kg) or corn oil which was used as control. Three and a half hours later the mice were challenged with DNP-BSA for 1.5 minutes. Plasma was collected, and histamine levels were measured by competitive ELISA. Histamine secretion in Stattic-treated mice was 43% less than that in control mice (FIG. 17, p<0.05).
Mitocur-1/3 effectiveness in vivo was investigated by evaluating the response to allergic stimulation in Mitocur-1/3-treated mice. The passive systemic IgE-mediated anaphylaxis model was used. Mice were injected (i.v.) with IgE anti-DNP. Twenty four hours later they were injected (i.p.) with Mitocur-1 (80 mg/kg) and Mitocur-3 (40 mg/kg). Corn oil was used as control. Three and a half hours later the mice were challenged with DNP-BSA for 1.5 minutes. Plasma was collected, and histamine levels were measured by competitive ELISA. Histamine secretion in Mitocur-1-treated mice was 35% less than that in control mice (FIG. 22A, p<0.05).

BMMC [8] = experiment: β-Hexosaminidase release assay (degranulation) in BMMC; format: cell-based, mouse; settings: activated BMMC, 6 μM
Description: as §1, §2

c-myc = experiment: Western blot of c-myc (STAT3 target gene) in RBL cells; format: cell-based, rat; settings: 3 h
Description: as §3
The levels of cleaved caspase3 were measured as an indicator of apoptosis, which could occur as a result of inhibiting STAT3's target genes. […] Since higher concentrations reduced the levels of c-myc and enhanced the levels of cleaved caspase3, the inventors concluded that 6 μM Mitocur-1/3 or lower would be suitable for the present invention. As these molecules are intended to be used in a time frame greater than 3 h, RBL cells were incubated with the same concentrations of Mitocur-1/3 for 24 h and the levels of cleaved caspase3 were determined by Western blot analysis.

BMMC [9] = experiment: Measurements of secreted mediators (ELISA) in activated BMMC; format: cell-based, mouse
Description: 1×106 BMMC were immunologically activated as described above. After IgE incubation, the cells were washed three times in PBS and incubated with DNP-albumin (Sigma-Aldrich) for 30 mM in complete growth medium. Supernatant was collected and Granzyme B and TNFα content were measured using ELISA Kits (eBioscience).

[10] = molecular target: signal transducer and activator of transcription factor 3 (STAT3), mitochondrial, endogenous in RBL cells (rat (RBL cells)) (UniProt P52631); experiment: cell-based or functional assay
Chain of UniProt P52631 (P52631 2-770 limits assumed): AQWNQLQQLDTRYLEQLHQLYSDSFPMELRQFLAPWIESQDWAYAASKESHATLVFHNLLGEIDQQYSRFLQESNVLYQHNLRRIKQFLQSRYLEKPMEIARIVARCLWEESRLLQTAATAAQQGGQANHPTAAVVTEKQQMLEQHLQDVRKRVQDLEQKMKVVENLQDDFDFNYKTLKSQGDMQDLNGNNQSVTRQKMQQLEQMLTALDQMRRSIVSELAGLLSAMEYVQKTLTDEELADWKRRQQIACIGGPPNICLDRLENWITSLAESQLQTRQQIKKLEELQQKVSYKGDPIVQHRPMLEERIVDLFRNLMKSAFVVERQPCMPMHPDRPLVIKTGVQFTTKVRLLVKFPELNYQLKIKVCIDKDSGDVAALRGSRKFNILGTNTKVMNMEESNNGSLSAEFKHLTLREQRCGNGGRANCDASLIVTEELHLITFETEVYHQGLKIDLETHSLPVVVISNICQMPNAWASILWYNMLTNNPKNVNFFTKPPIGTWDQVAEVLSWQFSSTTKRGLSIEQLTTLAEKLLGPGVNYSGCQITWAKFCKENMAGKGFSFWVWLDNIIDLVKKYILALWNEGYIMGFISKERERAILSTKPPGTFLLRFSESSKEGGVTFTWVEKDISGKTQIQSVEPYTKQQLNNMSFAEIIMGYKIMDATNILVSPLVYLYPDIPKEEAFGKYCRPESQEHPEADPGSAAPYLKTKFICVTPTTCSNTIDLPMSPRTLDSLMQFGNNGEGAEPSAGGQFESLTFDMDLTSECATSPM

[11] = immunologically activated BMMC, 6 μM (FIG. 21C)
[12] = RBL cells transfected with PIAS3-mito vs empty plasmid

Molecule: COc1ccc(S(=O)(=O)Nc2cc(-c3c(O)ccc4ccccc34)c(O)c3ccccc23)cc1 [Mitocur C188-9, N-(1′,2-Dihydroxy-1,2′-binaphthalen-4′-yl)-4-methoxybenzenesulfonamide]
degranulation (RBL cells [1]; immunologically activated RBL cells, 250 μM C188-9, 10 min): abolished

Molecule: N#CC(=C(/N)Sc1ccccc1N)/C(C#N)=C(\N)Sc1ccccc1N [Mitocur U0126, reference compound]
decrease in ATP levels (RBL cells [2]; immunologically activated RBL cells, 20 min pre-treatment with 40 μM U0126): 3.0±0.4%
decrease in oxygen consumption (RBL cells [3]; activated RBL cells): 15.8±4.9%
decrease in oxygen consumption (RBL cells [3]; quiescent RBL cells): 9.4±2.4%
STAT3 727 serine phosphorylation, total cell level ([4]; RBL cells, 40 μM U0126, activated 5 min): significant decrease
STAT3 727 serine phosphorylation, mitochondrial level ([4]; activated RBL cells fractionated into cytosol and mitochondria, 40 μM U0126): decrease
reduction in degranulation as compared to control (RBL cells [1]; IgE-Ag stimulated RBL cells, 40 μM U0126, 20 min): 33.0±0.6%
degranulation levels at higher concentrations (RBL cells [1]; RBL cells, U0126 above 40 μM (FIG. 12)): more profound reduction
caspase3 levels (apoptosis) (caspase3 [5]; activated RBL cells, 40 μM U0126): no change

melting point: 130 to 140 °C
cleaved caspase3 levels (caspase3 [7]): no change
degranulation levels (BMMC [8]; 3 h incubation): reduced
degranulation levels (BMMC [8]; 24 h incubation): reduced
Molecule: COc1cc(/C=C/C(=O)CC(=O)/C=C/c2ccc(OCCC[P+](c3ccccc3)(c3ccccc3)c3ccccc3)c(OC)c2)ccc1OCCC[P+](c1ccccc1)(c1ccccc1)c1ccccc1 [Mitocur-1, 1,7-Bis{3-methoxy-4-[3-(triphenylphosphonium)propoxy]-phenyl}hepta-1,6-diene-3,5-dione dichloride]
ATP levels (RBL cells [2]; 100 μM, 3 h (data not shown)): reduced
ATP levels (RBL cells [2]; 6-50 μM, 3 h): No significant reduction
TNF-α secretion (RBL cells [6]): completely abolished
oxygen consumption (RBL cells [3]; 100 μM): reduced
oxygen consumption (RBL cells [3]; 6-50 μM): No significant reduction
Emax at 6 µM (RBL cells [1]; Rattus norvegicus, RBL cells, 6 μM, 3 h incubation, read-out: maximum effect, reduction of degranulation): > 50%
histamine secretion less than in control mice (plasma histamine): 35%
cleaved caspase levels (caspase3 [5]; RBL cells, 6 μM, 3 h): no change
cleaved caspase3 levels (caspase3 [5]; RBL cells, concentrations higher than 6 μM, 3 h): enhanced
c-myc levels compared to control (c-myc; 6 μM): no change
c-myc levels (c-myc; concentrations higher than 6 μM): reduced
Granzyme-B secretion (BMMC [9]; BMMC (data not shown)): abolished
cytokine secretion: IL-6 (BMMC [9]; [11]): totally abolished
cytokine secretion: TNF-α (BMMC [9]; [11]): totally abolished

ATP levels of activated cells compared to control (empty plasmid) [10]: 15.9 % decrease
degranulation (β-hexosaminidase release) [10]: 67.5%
Molecule: PIAS3 fused to a mitochondrial target sequence (PIAS3-mito) (from UniProt O54714 13-628)

B1: PIAS3-mito: PIAS3 fused to a mitochondrial target sequence, expressed from a transfected plasmid (SEQ ID NO. 16) (protein)
chain: MSVLTPLLLRGLTGSARRLPVPRAKIHSLLQVDSFRVSELQVLLGFAGRNKSGRKHELLAKALHLLKSSCAPSVQMKIKELYRRRFPRKTLGPSDLSLLSLPPGTSPPVHPDVTMKPLPFYEVYGELIRPTTLASTSSQRFEEAHFTFALTPQQLQQILTSREVLPGAKCDYTIQVQLRFCLCETSCPQEDYFPPNLFVKVNGKLCPLPGYLPPTKNGAEPKRPSRPINITPLARLSATVPNTIVVNWSSEFGRNYSLSVYLVRQLTAGTLLQKLRAKGIRNPDHSRALIKEKLTADPDSEVATTSLRVSLMCPLGKMRLTVPCRALTCAHLQSFDAALYLQMNEKKPTWTCPVCDKKAPYESLIIDGLFMEILNSCSDCDEIQFMEDGSWCPMKPKKEASEVCPPPGYGLDGLQYSAVQEGIQPESKKRVEVIDLTIESSSDEEDLPPTKKHCPVTSAAIPALPGSKGALTSGHQPSSVLRSPAMGTLGSDFLSSLPLHEYPPAFPLGADIQGLDLFSFLQTESQHYGPSVITSLDEQDTLGHFFQYRGTPSHFLGPLAPTLGSSHRSSTPAPPPGRVSSIVAPGSSLREGHGGPLPSGPSLTGCRSDVISLD
decrease in ATP levels of activated cells compared to control (RBL cells [2]; RBL cells transfected with PIAS3-mito vs empty plasmid, activated 5 min): 15.9±1.6%
oxygen consumption in activated cells compared to activated control cells (RBL cells [3]; [12]): did not change
decrease in degranulation (RBL cells [1]; [12]): 67.5±15.0%
